Laboratory results from patent US20260355325A1, “DIMER COMPOUNDS” (KESMALEA THERAPEUTICS LIMITED, priority 2023, published 2026).

What was measured:
AR (Androgen Receptor) = target: T1, AR (Androgen Receptor) (Homo sapiens, UniProt P10275); assay: AR IFA Assay (androgen receptor degradation in LNCaP and VCaP cells); type: cell-based; conditions: AR degradation in cells (LNCaP, VCaP) at 48-hour timepoint
T1 construct: immunofluorescence degradation readout (antibody D6F11), 48 h
T1 sequence (P10275 1-920): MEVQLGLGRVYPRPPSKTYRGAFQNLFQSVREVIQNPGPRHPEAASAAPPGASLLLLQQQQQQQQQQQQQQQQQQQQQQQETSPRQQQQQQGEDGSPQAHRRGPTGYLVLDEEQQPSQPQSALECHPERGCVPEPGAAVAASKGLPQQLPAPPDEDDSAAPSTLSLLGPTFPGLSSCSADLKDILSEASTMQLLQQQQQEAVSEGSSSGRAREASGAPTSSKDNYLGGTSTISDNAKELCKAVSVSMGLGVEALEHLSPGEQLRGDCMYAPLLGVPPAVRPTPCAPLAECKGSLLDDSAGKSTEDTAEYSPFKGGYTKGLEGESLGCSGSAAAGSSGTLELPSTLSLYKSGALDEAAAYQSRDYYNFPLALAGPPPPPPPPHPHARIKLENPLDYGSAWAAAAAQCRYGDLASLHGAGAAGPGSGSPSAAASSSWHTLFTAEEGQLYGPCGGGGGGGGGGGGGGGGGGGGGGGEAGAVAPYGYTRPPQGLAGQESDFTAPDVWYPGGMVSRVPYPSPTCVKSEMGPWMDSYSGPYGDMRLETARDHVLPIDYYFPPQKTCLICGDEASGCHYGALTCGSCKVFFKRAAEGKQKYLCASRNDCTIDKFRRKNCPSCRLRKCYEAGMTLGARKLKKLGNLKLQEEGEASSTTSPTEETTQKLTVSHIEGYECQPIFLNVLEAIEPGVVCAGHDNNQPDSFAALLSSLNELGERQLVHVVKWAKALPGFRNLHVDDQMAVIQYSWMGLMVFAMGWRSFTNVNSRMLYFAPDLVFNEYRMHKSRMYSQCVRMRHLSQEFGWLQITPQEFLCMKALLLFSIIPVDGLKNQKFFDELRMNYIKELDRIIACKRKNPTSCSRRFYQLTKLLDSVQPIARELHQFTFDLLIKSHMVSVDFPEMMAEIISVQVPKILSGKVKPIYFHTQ
From the text: The purpose of the AR Assays were to assess the binding affinity of the dimer to AR and subsequent protein degradation.
(§1) LNCaP, and VCaP cells were obtained from ATCC (ATCC, Manassas, VA). LNCaP cells were maintained in RPMI 1640 (Invitrogen™, Waltham, MA) supplemented with 10% FBS (AusGeneX, Molendinar, Australia) and 1% penicillin/streptomycin (Invitrogen™, Waltham, MA). VCaP cells were maintained in 1:1 ratio F-12(HAM) Nutrient mixture (AdvanCell Technology, Taichung city, Taiwan) and DMEM (Invitrogen™, Waltham, MA) supplemented with 10% FBS (AusGeneX, Molendinar, Australia) and 1% penicillin/streptomycin (Invitrogen™, Waltham, MA).
Compounds were dissolved in DMSO (10 mM), serially diluted from 10 mM to 1.5 nM, and pre-incubated for 2 hours. Exponentially growing cells were seeded at 8×10^3 cells per well of 384 well plate (Corning, New York #356663). Cells were treated with compound for 48 hours. Following treatment, cells were fixed with 4% PFA (SolarBio Lifescience, Beijing, China) for 20 minutes, permeabilised in 100% ice-cold methanol (Merck, Darmstadt, Germany) for 10 minutes, and blocked with blocking buffer (LI-COR Biosciences Lincoln, NE) for 90 minutes. Cells were incubated with primary Androgen Receptor (D6F11) XP® Rabbit mAb antibody (CST #5153 Danvers, MA) at 1:1000 dilution overnight in blocking buffer (LI-COR, Lincoln, NE) at 4° C. Cells were washed in DPBS (Thermo Fisher Scientific, Waltham, MA) and incubated with secondary antibody AlexaFluor 488 goat anti rabbit (Invitrogen™ #A-11008 Waltham, MA) 1:1000 dilution, with Hoechst stain (Invitrogen™ Waltham, MA) 1:5000 dilution in blocking buffer (LI-COR Biosciences, Lincoln, NE) for 90 minutes. After final DPBS wash, 200 ul of DPBS was added to the cells, and signal read on Operetta (Revvity, Waltham, MA). Each data point was performed in duplicate for every experiment. A DC50 value was calculated from linear regression analysis of the plots.

[1] = tested on: 22RV-1, LNCaP, and VCaP cells; assay: AR CTG Assay (Cell Titer-Glo cell viability); type: cell-based; conditions: Cell viability in cells at 24-hour timepoint (22RV-1, LNCaP, VCaP; line not stated)
From the text: as §1, with “22RV-1, LNCaP,” for “LNCaP,”, “VA). 22RV-1 and” for “VA).”
Compounds were dissolved in DMSO (10 mM), serially diluted from 10 mM to 1.5 nM, and pre-incubated for 2 hours. Exponentially growing cells were seeded at 8×10^3 cells per well of 384 well plate (Corning, New York #3570). Cells were treated with compound for 24 hours. Following treatment, Cell Titer-Glo® Detection reagent (Promega Corporation, Madison, WA) was added according to manufacturer's instructions, and signal read using BMG CLARIOstar plate reader (BMG Labtech, Ortenburg, Germany). Each data point was performed in duplicate for every experiment. A GI50 value was calculated from linear regression analysis of the plots.

| DC50 (AR (Androgen Receptor)) | IC50 [1] | SMILES |
| --- | --- | --- |
| 0.1 to 0.5 µM | > 10 µM | Cc1cc(C(=O)N(C)CCCOc2cccc3c2CN(C2CCC(=O)NC2=O)C3=O)ccc1B1O[C@H]2C[C@H]3C[C@H](C3(C)C)[C@@]2(CCCNc2ccc(C(=O)N[C@H]3CC[C@H](Oc4ccc(C#N)c(Cl)c4)CC3)cc2)O1 (mixture of isomers) [Example 23, 4-((3aR,4R,6R,7aS)-3a-(3-((4-((trans-4-(3-chloro-4-cyanophenoxy)cyclohexyl)carbamoyl)phenyl)amino)propyl)-5,5-dimethylhexahydro-4,6-methanobenzo[d][1,3,2]dioxaborol-2-yl)-N-(3-((2-(2,6-dioxopiperidin-3-yl)-1-oxoisoindolin-4-yl)oxy)propyl)-N,3-dimethylbenzamide] |
| 0.1 to 0.5 µM | > 10 µM | Cc1ccc(C(=O)N(C)CCCOc2cccc3c2CN(C2CCC(=O)NC2=O)C3=O)cc1B1O[C@H]2C[C@H]3C[C@H](C3(C)C)[C@@]2(CCCNc2ccc(C(=O)N[C@H]3CC[C@H](Oc4ccc(C#N)c(Cl)c4)CC3)cc2)O1 (mixture of isomers) [Example 24, 3-((3aR,4R,6R,7aS)-3a-(3-((4-((trans-4-(3-chloro-4-cyanophenoxy)cyclohexyl)carbamoyl)phenyl)amino)propyl)-5,5-dimethylhexahydro-4,6-methanobenzo[d][1,3,2]dioxaborol-2-yl)-N-(3-((2-(2,6-dioxopiperidin-3-yl)-1-oxoisoindolin-4-yl)oxy)propyl)-N,4-dimethylbenzamide] |
| 0.1 to 0.5 µM | > 10 µM | Cc1cc([C@@H](C(=O)N2C[C@H](O)C[C@H]2C(=O)NCc2ccc(Cl)cc2B2O[C@H]3C[C@H]4C[C@H](C4(C)C)[C@@]3(CCNc3ccc(C(=O)N[C@H]4CC[C@H](Oc5ccc(C#N)c(Cl)c5)CC4)cc3)O2)C(C)C)on1 (racemic) [Example 22, (2S,4R)—N-(4-chloro-2-((3aR,4R,6R,7aS)-3a-(2-((4-((trans-4-(3-chloro-4-cyanophenoxy)cyclohexyl)carbamoyl)phenyl)amino)ethyl)-5,5-dimethylhexahydro-4,6-methanobenzo[d][1,3,2]dioxaborol-2-yl)benzyl)-4-hydroxy-1-((S)-3-methyl-2-(3-methylisoxazol-5-yl)butanoyl)pyrrolidine-2-carboxamide] |

| SMILES | DC50 (AR (Androgen Receptor)) | IC50 [1] |
| --- | --- | --- |
| Cc1cc2c(cc1B1O[C@H]3C[C@H]4C[C@H](C4(C)C)[C@@]3(CCOc3ccc(N4C(=S)N(c5ccc(C#N)c(C(F)(F)F)c5)C(=O)C4(C)C)cc3)O1)CN(CCCOc1cccc3c1CN(C1CCC(=O)NC1=O)C3=O)C2=O (stereo partly drawn) [Example 21, 4-(3-(4-(2-((3aR,4R,6R,7aS)-2-(2-(3-((2-(2,6-dioxopiperidin-3-yl)-1-oxoisoindolin-4-yl)oxy)propyl)-6-methyl-1-oxoisoindolin-5-yl)-5,5-dimethyltetrahydro-4,6-methanobenzo[d][1,3,2]dioxaborol-3a(4H)-yl)ethoxy)phenyl)-4,4-dimethyl-5-oxo-2-thioxoimidazolidin-1-yl)-2-(trifluoromethyl)benzonitrile] | 0.1 to 0.5 µM | > 10 µM |
